Results taken from patent US20250222109A1, “STRUCTURED LIPID COMPOSITIONS” (Universität Bern, priority 2022, published 2025).

Assays:
[1] = Drug encapsulation and distribution in TIF-Gel (WAXS, HPLC of gel layers); format: physicochemical
Description: The tube was centrifuged and kept at rest for 24 hours. Subsequently, the gel was divided into 3 different layers (Top, Middle, and Bottom), and the drug content evaluated in each by HPLC.
WAXS measurements were performed on a Bruker AXS Micro, with a microfocused X-ray source, operating at voltage and filament current of 50 kV and 1000 μA, respectively. The Cu Kα radiation (λCu Kα=1.5418 Å) was collimated by a 2D Kratky collimator, and the data were collected by a 2D Pilatus 100K detector. The scattering vector Q=(4π/λ) sin θ, with 2θ being the scattering angle, was calibrated using silver behenate. Data were collected and azimuthally averaged using the Saxsgui software to yield 1D intensity vs. scattering vector Q, with a Q range from 13 to 18 nm-1. For all measurements the samples were placed inside a stainless-steel cell between two thin replaceable mica sheets and sealed by an O-ring, with a sample volume of 10 μL and a thickness of ˜1 mm.
The TAC loaded mesophase composition comprised: a) a carrier comprising: a1) water in an amount of 16% by weight of the carrier; and a2) MLO in an amount of 84% by weight of the carrier; and b) TAC in an amount of 1% by weight of the composition.

[2] = SAXS phase identification of MLO-water mesophases (TIF-Gel); format: physicochemical; settings: 5 mg of TOFA and 1 mg of TAC in 100 mg of gel
T cell transfer colitis = test: T-cell transfer colitis; format: in vivo, mice; settings: colonoscopy, day 19 post T cell application
[3] = Stability study of TAC and TOFA-loaded TIF-Gel (HPLC); format: physicochemical; settings: 4° C. and 25° C., one-month period
Description: The TAC and TOFA-loaded TIF-Gels were prepared according to Example 1. […] The TAC-loaded TIF-Gel composition comprised a) a carrier comprising: a1) water in an amount of 16% by weight of the carrier; and a2) MLO in an amount of 84% by weight of the carrier; and b) TAC in an amount of 1% by weight of the composition. […] At specific time points, an aliquot of the formulation was analysed at the HPLC, and the content of the drug was recorded. Data are expressed as relative percentage referred to day 0.

distribution of drug in the gel matrix ([1]; Top, Middle and Bottom gel layers, HPLC): homogeneously distributed
drug crystallisation in the gel (WAXS) ([1]; embedded in the 3D gel structure): do not form crystals
encapsulation efficacy ([1]; encapsulated in the TIF-Gel): 100%
long-term stability of drug loaded into TIF-gel (drug content by HPLC) [3]: stable
SMILES: C=CC[C@@H]1/C=C(\C)C[C@H](C)C[C@H](OC)[C@H]2O[C@@](O)(C(=O)C(=O)N3CCCC[C@H]3C(=O)O[C@H](/C(C)=C/[C@@H]3CC[C@@H](O)[C@H](OC)C3)[C@H](C)[C@@H](O)CC1=O)[C@H](C)C[C@@H]2OC [TAC, tacrolimus]
effect of drug entrapment on phase identity and thermal behaviour of the carrier gel [2]: did not affect the phase identity and thermal behaviour
endoscopic signs of colitis (T cell transfer colitis): reduced endoscopic signs of colitis
